Test results taken from patent publication US6677344B2, “Chymase inhibitor for the treatment of eosinophilia” (Daiichi Suntory Pharma Co., Ltd., priority 2000, dated 2004).
pIC50: −log10 of the molar value.

Legend:
Human heart chymase = biological target: T1, Human heart chymase (Homo sapiens, UniProt P23946); test: Measurement of chymase inhibitory activity; type: biochemical; details: substrate Suc-Ala-Ala-Pro-Phe-MCA, 30° C., pH 7.5
T1 construct: Human heart chymase was purified according to the method of Urata et al; from tissue; host or cells: human heart
T1 sequence (P23946 22-247): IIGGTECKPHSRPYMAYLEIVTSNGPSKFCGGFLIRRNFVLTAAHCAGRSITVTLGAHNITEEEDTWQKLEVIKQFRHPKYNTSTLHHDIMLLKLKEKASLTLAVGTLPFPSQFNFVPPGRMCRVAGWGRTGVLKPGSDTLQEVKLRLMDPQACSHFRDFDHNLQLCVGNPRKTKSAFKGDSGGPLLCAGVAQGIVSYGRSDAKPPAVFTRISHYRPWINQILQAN
Description: Human heart chymase was purified according to the method of Urata et al. (J. Biol. Chem., 1990, 265, 22348). The inhibitory activity of the compound of the present invention was determined as follows. Purified enzyme was diluted with 0.1M tris-HCl buffer (pH=7.5), 1M sodium chloride, and 0.01% TritonX-100 to obtain an enzyme solution having appropriate concentrations. Suc-Ala-Ala-Pro-Phe-MCA (Peptide Institute Inc.) was dissolved in 10 mM dimethyl sulfoxide (hereinafter referred to as DMSO) and diluted 20-fold with 0.1M Tris-HCl buffer (pH 7.5) containing 1M sodium chloride and 0.01% TritonX-100 to an appropriate concentration to prepare substrate solution.
5 μl of the test sample in DMSO was added to 75 μl of the enzyme solution and preincubated at 30° C. for 10 minutes. Then, 20 μl of the substrate solution was added to the test sample-enzyme mixture, and incubated at 30° C. Ten minutes later, 50 μl of 30% acetic acid was added to stop the enzymatic reaction, and the amount of AMC formed was determined using a fluorophotometer. At the same time, 5 μl of DMSO in stead of the test sample was added and reacted simultaneously as a control. The inhibitory activity to human chymase was calculated based on the value of the control, and then the inhibition percentage and the 50% inhibition concentration (IC50) were determined.

[1] = test system: Nippostrongylus brasiliensis (Nb); test: Number of eggs in feces in Nb infected mice; type: in vivo
Description: (§1) Male BALB/c mice (7-weeks old) were transcutaneously inflected with 750 parasitic worms of Nippostrongylus brasiliensis (Nb) (third stage larvae) in accordance with an already reported method (Int. Arch. Allergy Immunol. 117, Suppl. 1, 2, 1998). After two weeks, the number of eosinophils in the peripheral blood and the total number of leukocytes in the peripheral blood were measured. Further, at day 7 and day 10, the number of eggs in the feces was measured. The chymase inhibitor (Compound 18) was dissolved in saline and injected intraperitoneally in 0.2 ml amounts once a day continuously from the day before infection until the end of the test. Note that the control group was administered only saline. The number of cells in the peripheral blood was measured by sampling peripheral blood from the eye cavity. The eosinophils were stained with a Hinkelman's solution, then counted under a microscope. Further, the total number of leukocytes was measured under a microscope after staining with by a Turk's solution. The number of eggs in the feces was determined by obtaining individual feces of the mice, measuring their weight, then dissolving them in 1 ml of 10% formalin, counting the number of eggs in the feces solution under a microscope, then expressing the result as the number of eggs per gram of feces.

[2] = test system: eosinophils in the peripheral blood of Nb infected mice; test: Increase in eosinophils of mice infected with Nippostrongylus brasiliensis (Nb); type: in vivo
Description: as §1

[3] = 50 mg/kg, intraperitoneal once a day, BALB/c mice, 2 weeks after Nb infection

SMILES | pIC50 (Human heart chymase) | No. of Nb eggs in gram of feces, Day 7 ([1]; 50 mg/kg, intraperitoneal once a day, day 7 after Nb infection) | No. of Nb eggs in gram of feces, Day 10 ([1]; 50 mg/kg, intraperitoneal once a day, day 10 after Nb infection) | Difference in number of eggs of Nb versus group not administered ([1]; day 7 or day 10 after Nb infection) | Number of eosinophils in peripheral blood, 2 weeks after infection ([2]; 2 mg/kg, intraperitoneal once a day, BALB/c mice, 2 weeks after Nb infection) | Number of eosinophils in peripheral blood, before infection ([2]; 2 mg/kg, intraperitoneal once a day, BALB/c mice) | Number of eosinophils in peripheral blood, 2 weeks after infection ([2]; 10 mg/kg, intraperitoneal once a day, BALB/c mice, 2 weeks after Nb infection) | Number of eosinophils in peripheral blood, before infection ([2]; 10 mg/kg, intraperitoneal once a day, BALB/c mice) | Number of eosinophils in peripheral blood, 2 weeks after infection [2, 3] | Total no. of leukocytes in peripheral blood 2 weeks after infection [2, 3] | Number of eosinophils in peripheral blood, before infection ([2]; 50 mg/kg, intraperitoneal once a day, BALB/c mice) | Effect on Nb-induced increase in the number of eosinophils ([2]; 50 mg/kg/day, Dunnett's test, 2 weeks after infection) | Effect on the total number of leukocytes in the peripheral blood ([2]; Nb infected mice, 2 weeks after infection)
CC(C(=O)O)C(=O)Nc1cccc(S(=O)(=O)n2c(=O)[nH]c3cc(Cl)ccc3c2=O)c1 (stereo not shown) [Compound 13, 2-{3-[(7-chloro-2,4(1H,3H)-quinazolinedion-3-yl)sulfonyl]phenylaminocarbonyl}propionic acid] | 6.52 |  |  |  |  |  |  |  |  |  |  |  | 
Nc1cc(S(=O)(=O)n2c(=O)[nH]c3cc(Cl)ccc3c2=O)ccc1C(=O)[O-].[Na+] [Compound 18, 4-[(7-chloro-2,4(1H,3H)-quinazolinedion-3-yl)sulfonyl]anthranilic acid monosodium salt] |  | 30541 ± 12501 eggs per gram of feces | 558 ± 1248 eggs per gram of feces | almost no difference | 1036 ± 240 no./mm^3 | 30 ± 12 no./mm^3 | 818 ± 155 no./mm^3 | 36 ± 11 no./mm^3 | 360 ± 66 no./mm^3 | 5820 ± 460 no./mm^3 | 32 ± 16 no./mm^3 | significantly suppressed | little effect
